Laboratory results from patent US12013389B2, “Method of evaluating pathological conditions of heart failure” (NATIONAL UNIVERSITY CORPORATION HOKKAIDO UNIVERSITY, priority 2018, dated 2024).
One block for each compound: values may come before it.

What was measured:
[1] = system: H9c2 cells; test: Succinylation level of mitochondrial proteins of glycine-treated H9c2 cells; format: cell-based
Protocol: (§1) When glycine was used, glycine was added to the culture medium for cultured H9c2 cells so that the concentration was 100 mM, and the cells were cultured for 6 hours. After culturing, the cells were collected and mitochondria were isolated. Then, the succinylation level of the mitochondrial proteins was measured by WB.
(§2) In addition, in the heme synthesis process, glycine and succinyl-CoA reacted to synthesize ALA. […] The succinylation level and the respiratory capacity related to mitochondrial complex II were examined.

[2] = system: H9c2 cells; test: Respiratory capacity related to mitochondrial complex II in glycine-treated H9c2 cells; format: cell-based
Protocol: as §1, §2

[3] = system: HF model mice; test: Exercise capacity (treadmill) of HF model mice given ALA; format: in vivo; conditions: HF model mice with ALA vs without ALA; treadmill run until exhaustion
Protocol: (§3) The left anterior descending coronary artery of the heart of 10- to 12-week old male C57BL/6J mice (body weight of 23 to 26 g) was ligated to cause myocardial infarction (MI). The body weight of the mice was measured before the operation, a mixed anesthetic containing 3 types including 0.3 mg/kg BW of medetomedine hydrochloride, 4.0 mg/kg BW of midazolam, and 5.0 mg/kg BW of butorphanol tartrate was intraperitoneally administered, and it was confirmed that the depth of anesthesia was sufficient. […]
(§4) Specifically, after the HF model mice were underwent a left coronary artery ligation operation, an aqueous solution (50 mg/L) containing ALA (≥98%, commercially available from Sigma Aldrich) was administered by forced drinking (6 to 8 mg/kg/day), and on the 28th day after the operation, the mitochondrial functions were measured using echocardiography and a mitochondrial respiratory capacity measurement device. […]
In addition, the exercise capacities of the HF model mice without administration of ALA and the HF model mice to which ALA was administered were examined. The exercise capacity was expressed as a product of an exercise time and a body weight. The exercise time was measured using a small animal treadmill, and mice were at rest for 10 minutes, and w-up for 10 minutes (6 m/min, inclination of 10 degrees), and then forced to run until exhaustion by increasing a load (2 m/2 min). […]

[4] = system: mitochondrial complex I and mitochondrial complex II; test: Respiratory capacity related to complex I and complex II in myocardial mitochondria of HF model mice given ALA; format: in vivo; conditions: ALA 50 mg/L in drinking water (6 to 8 mg/kg/day), day 28 after operation
Protocol: (§5) A mitochondrial respiratory capacity (oxidative phosphorylation: OXPHOS) was measured by a high-resolution respiration measurement method. Specifically, isolated mitochondria (50 to 100 μg) or myocardial fibrous tissues (0.5 to 3 mg) after the cell membrane permeation treatment were used as a test sample, and measurement was performed using a mitochondrial oxygen activity/cell metabolic energy analyzing device (product name: “OROBOROS Oxygraph-2 k,” commercially available from Innsbruck) (hereinafter referred to as a “mitochondrial respiratory capacity measurement device” in some cases) under an environment at 37° C. according to the following protocol. An oxygen consumption amount was calculated using Datlab software, and in this case, correction was performed per tissue weight or per mitochondrion.
(§6) (3) 10 mmol/L of succinic acid, which is a substrate related to mitochondrial complex II, was added, and the oxygen consumption amount was measured (CI+II_OXPHOS). […]
as §4

[5] = system: mitochondrial complex IV; test: Respiratory capacity related to complex IV in myocardial mitochondria of HF model mice given ALA; format: in vivo; conditions: ALA 50 mg/L in drinking water (6 to 8 mg/kg/day), day 28 after operation
Protocol: as §5
(8) The respiratory capacity when 2 mmol/L of ascorbic acid and 0.5 mmol/L of TMPD (N,N,N′,N′-tetramethyl-p-phenylenediamine), which are substrates of mitochondrial complex IV, were added was measured. Next, the respiratory capacity when 100 mmol/L of sodium azide as an inhibitor was added was measured, and a difference therebetween was calculated (CIV_OXPHOS).
(§7) The left anterior descending coronary artery of the heart of 10- to 12-week old male C57BL/6J mice (body weight of 23 to 26 g) was ligated to cause myocardial infarction (MI). […]

[6] = system: mitochondrial complex II; test: Respiratory capacity related to complex II in myocardial mitochondria of HF model mice given ALA; format: in vivo; conditions: ALA 50 mg/L in drinking water (6 to 8 mg/kg/day), day 28 after operation
Protocol: as §5
(4) In order to observe the respiration of OXPHOS of mitochondrial complex II alone, 0.5 μmol/L of rotenone, which is an inhibitor of mitochondrial complex I, was added and the oxygen consumption amount was measured (CII_OXPHOS).
as §7

[7] = system: HF model mice; test: Echocardiography of HF model mice given ALA; format: in vivo; conditions: HF model mice with ALA vs without ALA; 6 to 8 mg/kg/day; day 28 after operation
Protocol: Echocardiography was performed under anesthesia ([…] 8 μL/gBW, intraperitoneal administration) with a short duration of action and least impact on the cardiovascular system. The limbs and tail were fixed in a lying position to an examination table with a tape and the anterior chest wall of the mice was depilated with a depilatory cream. Using an ultrasonic diagnostic device and a 12 MHz linear probe, optimal 2D parasternal short-axis images were visualized at the papillary muscle level. Switching to an M mode method was performed, recording was performed at a recording paper speed of 40 mm/s, and a heart rate, a left ventricular end-diastolic dimension, a left ventricular end-systolic dimension, a left ventricular anterior wall thickness, a left ventricular posterior wall thickness, and a left ventricular fractional shortening were measured.
as §3

[8] = system: mitochondrial proteins; test: Succinylation assay of mitochondrial proteins (isolated mouse heart mitochondria, western blotting); format: biochemical, mice
Protocol: (§8) First, the heart (left ventricle) extracted from euthanized mice under anesthesia was immersed in a tissue preservation solution BIOPS (2.77 mM CaK2EGTA, 7.23 mM K2EGTA, 5.77 mM Na2ATP, 6.56 mM MgCl2/6H2O, 20 mM taurine, 15 mM Na2 phosphocreatine, 20 mM imidazole, 0.5 mM dithiothreitol, 50 mM MES hydrate, pH 7.1), and then shredded in a tissue isolation buffer (100 mM sucrose, 100 mM KCl, 50 mM tris-HCl, 1 mM KH2PO4, 0.1 mM EGTA, 0.2% bovine serum albumin, pH 7.4). Protease was added to this shredded product to cause an enzyme reaction and homogenization was then performed. The obtained homogenized solution was centrifuged to remove the supernatant, and the precipitate was washed with a tissue isolation buffer twice. A suspension buffer (225 mM mannitol, 75 mM sucrose, 10 mM tris-HCl, 0.1 mM EDTA, pH 7.4) was added to the washed precipitate and the precipitate was dissolved.
[…] Then, the succinylation level of the mitochondrial proteins was measured by western blotting (WB).
Specifically, first, succinyl-CoA (0, 1, 3, or 10 mM) was added to the mitochondria collected from the left ventricle of wild type mice (C57BL/6J), succinylation assay was performed, and the succinylation level of the mitochondrial proteins (the relative amount when the amount of succinylation proteins without addition of succinyl-CoA (0 mM) was set as 1) was examined. […]

[9] = target: T1, mitochondrial complex II (Mus musculus, UniProt Q8K2B3+Q9CQA3+Q9CXV1+Q9CZB0); test: Mitochondrial respiratory capacity related to complex II after adding succinyl-CoA to isolated mitochondria (high-resolution respiration measurement); format: biochemical; conditions: mitochondria isolated from wild type mice
T1 construct: from tissue; host or cells: mitochondria isolated from the left ventricle (myocardium) of C57BL/6J mice (wild type, sham control or HF model)
Protocol: as §8, with “A suspension buffer (225 mM mannitol, 75 mM sucrose, 10 mM tris-HCl, 0.1 mM EDTA, pH 7.4) was added to the washed precipitate and the precipitate was dissolved.” left out
A mitochondrial respiratory capacity (oxidative phosphorylation: OXPHOS) was measured by a high-resolution respiration measurement method. […] An oxygen consumption amount was calculated using Datlab software, and in this case, correction was performed per tissue weight or per mitochondrion. […]
(2) 10 mmol/L of glutamic acid, 2 mmol/L of malic acid, and 5 mmol/L of pyruvic acid, which are substrates related to mitochondrial complex I, were added, and the oxygen consumption amount was measured (CI_OXPHOS).
as §6

[10] = system: mitochondrial complex II; test: Expression level of mitochondrial complex II per mitochondrion (blue native method, anti-SDHA); format: biochemical; conditions: mitochondria isolated from HF model mice treated with 1 mM succinyl-CoA
Protocol: Based on the results so far, it was clearly understood that the respiratory capacity related to mitochondrial complex II could be controlled by the expression level of mitochondrial complex II per mitochondrion. Therefore, for the mitochondria isolated from the control mice and the HF model mice and the mitochondria isolated from the HF model mice and then treated with 1 mM succinyl-CoA, the expression level of mitochondrial complex II per mitochondrion was evaluated using anti-SDHA mouse monoclonal antibodies (1:1,000, ab14715, commercially available from Abeam) by a blue native method.

[11] = H9c2 cells treated with glycine, succinyl-CoA added

T1 sequence (Q8K2B3 43-664): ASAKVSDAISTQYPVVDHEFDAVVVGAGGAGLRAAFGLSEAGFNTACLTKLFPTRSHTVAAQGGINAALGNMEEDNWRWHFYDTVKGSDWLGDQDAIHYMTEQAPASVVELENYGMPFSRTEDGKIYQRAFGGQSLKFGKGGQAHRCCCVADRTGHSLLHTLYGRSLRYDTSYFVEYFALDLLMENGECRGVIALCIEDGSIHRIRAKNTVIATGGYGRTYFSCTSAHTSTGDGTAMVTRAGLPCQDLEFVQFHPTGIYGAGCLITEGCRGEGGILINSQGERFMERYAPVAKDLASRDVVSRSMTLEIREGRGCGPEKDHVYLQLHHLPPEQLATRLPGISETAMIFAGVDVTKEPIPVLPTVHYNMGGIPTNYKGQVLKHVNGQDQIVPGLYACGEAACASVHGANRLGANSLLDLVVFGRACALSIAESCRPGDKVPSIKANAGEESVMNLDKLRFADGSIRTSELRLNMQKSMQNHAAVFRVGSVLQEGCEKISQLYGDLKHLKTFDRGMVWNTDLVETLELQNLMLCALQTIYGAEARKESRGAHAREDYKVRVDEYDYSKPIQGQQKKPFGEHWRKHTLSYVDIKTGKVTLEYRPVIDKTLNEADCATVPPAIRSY
T1 sequence (Q9CQA3 29-282 limits assumed): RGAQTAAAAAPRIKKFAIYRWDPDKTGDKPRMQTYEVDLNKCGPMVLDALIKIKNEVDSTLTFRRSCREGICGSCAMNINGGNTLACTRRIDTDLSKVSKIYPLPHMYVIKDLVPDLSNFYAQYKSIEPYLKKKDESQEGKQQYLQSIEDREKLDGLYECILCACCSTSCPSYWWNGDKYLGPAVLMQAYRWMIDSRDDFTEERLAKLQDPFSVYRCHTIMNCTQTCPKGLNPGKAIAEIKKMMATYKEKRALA
T1 sequence (Q9CZB0 30-169): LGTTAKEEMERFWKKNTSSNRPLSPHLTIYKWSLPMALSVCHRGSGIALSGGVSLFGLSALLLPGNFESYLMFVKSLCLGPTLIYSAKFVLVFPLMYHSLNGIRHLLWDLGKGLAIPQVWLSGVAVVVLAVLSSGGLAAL
T1 sequence (Q9CXV1 57-159): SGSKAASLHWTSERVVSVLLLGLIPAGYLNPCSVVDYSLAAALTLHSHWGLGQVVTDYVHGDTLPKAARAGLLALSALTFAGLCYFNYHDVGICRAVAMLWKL

SMILES: NCC(=O)O [glycine, reference compound]
succinylation level of mitochondrial proteins ([1]; H9c2 cells treated with glycine (100 mM, 6 hours)): decreased
respiratory capacity related to mitochondrial complex II ([2]; cells treated with glycine): decreases

SMILES: NCC(=O)CCC(=O)O [ALA, 5-aminolevulinic acid]
exercise capacity (exercise time x body weight) [3]: significantly improved
respiratory capacity related to mitochondrial complex I and mitochondrial complex II [4]: improved
respiratory capacity related to mitochondrial complex IV [5]: improved
respiratory capacity related to mitochondrial complex II [6]: improved
left ventricular fractional shortening (% FS) [7]: significantly improved

respiratory capacity related to mitochondrial complex II ([9]; 1 mM succinyl-CoA): increased
respiratory capacity related to mitochondrial complex II ([9]; 10 mM succinyl-CoA): significantly decreased
SMILES: CC(C)(COP(=O)(O)OP(=O)(O)OC[C@H]1O[C@@H](n2cnc3c(N)ncnc32)[C@H](O)[C@@H]1OP(=O)(O)O)[C@@H](O)C(=O)NCCC(=O)NCCSC(=O)CCC(=O)O [succinyl-CoA]
succinylation level of mitochondrial proteins [1, 11]: improved
succinylation in the mitochondrial protein ([8]; mitochondria from left ventricle of wild type mice (C57BL/6J), succinyl-CoA 1, 3 or 10 mM, relative to 0 mM): increased
succinylation level of mitochondrial proteins ([8]; mitochondria isolated from HF model mice, 0.1 mM succinyl-CoA): improved
respiratory capacity related to mitochondrial complex II [2, 11]: improved
amount of mitochondrial complex II (expression level per mitochondrion) [10]: remained reduced
